# Laboratory results: article PMC9963121, “Development of Combretastatin A-4 Analogues as Potential Anticancer Agents with Improved Aqueous Solubility” (Molecules, 2023)
# Counter-ions that a name gives are not always drawn.
# Experiments:
# [1] = tested on: AGS gastric cancer cell; test: MTT cell growth inhibition assay, AGS gastric cancer cells; type: cell-based; conditions: Homo sapiens, mean ± SD of three experiments
# Description: (§1) Initially, we designed and synthesised seven compounds—9a and 12a1–12a6—and evaluated the anticancer activity and aqueous solubility. We evaluated the cytotoxic effects of these stilbene nitrile analogues against a panel of four human cancer cell lines (HCT-116, BEL-7402, MCF-7 and AGS) and two human non-cancerous normal cell lines (L-02 and MCF-10A), using CA-4 as a control. The compounds were screened for aqueous solubility in 0.01 M PBS using a high throughput UV method. […] It is possible that the size of the nitrogen heterocycle had little effect on the activity of these compounds. […] The aqueous solubility of all the compounds 12a1–12a6 was higher than that of 9a, particularly that of 12a1 and 12a2 containing piperazine rings. […] Of the six compounds with improved aqueous solubility, 12a1 had the best activity.
# (§2) All human cell lines were used in this study. AGS gastric cancer cell, BEL-7402 liver cancer cell, HCT-116 colorectal cancer cell, L-02 normal liver cell, MCF-7 breast cancer cell, and MCF-10A normal breast cell were initially purchased from American Type Culture Collection (ATCC, Manassas, VA, USA). RPMI-1640 media, DMEM and FBS, were provided by Gibco Company. The cells were maintained in DMEM or RPMI-1640, supplemented with 10% FBS, 100 IU/mL penicillin and […] streptomycin, and at 37 °C in a humidified atmosphere containing 5% CO2.
# (§3) The experiment was carried out according to the method of reference.
# [2] = tested on: MCF-7 breast cancer cell; test: MTT cell growth inhibition assay, MCF-7 breast cancer cells; type: cell-based; conditions: Homo sapiens, MCF7, mean ± SD of three experiments
# Description: as §1, §2, §3
# [3] = tested on: HCT-116 colorectal cancer cell; test: MTT cell growth inhibition assay, HCT-116 colorectal cancer cells; type: cell-based, human; conditions: Homo sapiens, HCT-116; MTT; mean ± SD of three experiments
# Description: as §1, §2, §3
# [4] = tested on: BEL-7402 liver cancer cell; test: MTT cell growth inhibition assay, BEL-7402 liver cancer cells; type: cell-based; conditions: Homo sapiens, mean ± SD of three experiments, read-out: IC50 BEL-7402 Hepatoma Cells
# Description: as §1, §2, §3
# [5] = tested on: MCF-10A normal breast cell; test: MTT cell growth inhibition assay, MCF-10A normal breast cells; type: cell-based; conditions: Homo sapiens, mean ± SD of three experiments, read-out: IC50 MCF-10A Normal Breast Epithelial Cells
# Description: as §1, §2, §3
# [6] = tested on: L-02 normal liver cell; test: MTT cell growth inhibition assay, L-02 normal liver cells; type: cell-based; conditions: Homo sapiens, mean ± SD of three experiments
# Description: as §1, §2, §3
# [7] = Aqueous solubility in 0.01 M PBS, high throughput UV method; type: physicochemical; conditions: for solubility thermodynamic at 1.5 h: aqueous phosphate buffer, aqueous buffer, sodium phosphate buffer 0.01 M, pH 7.4, 22 ± 2 °C, mean ± SD
# Description: as §1
# The aqueous solubility was determined as a previously reported procedure. Put simply, a certain amount of powdered compound was placed in a 2 mL centrifuge tube and mixed with an appropriate volume of aqueous phosphate buffer (10 mM, pH 7.4) to make the whole system supersaturated. The mixtures were sonicated (KQ5200DE numerical control ultrasonic cleaner, Kunshan Ultrasonic Instrument Co., Ltd., SuZhou, China) for 20 min. After sonication, the mixture was allowed to equilibrate at RT (22 ± 2 °C) for 1.5 h with vortex shaking (1200 rpm). Then centrifuged at 3000 rpm for 15 min (1-14k, sigma, Darmstadt, Germany), the supernatant was filtered with a 0.22 µM filter membrane. And then, take 150 µL of filtrate and add it to 96-well UV plate with triplicate. Draw 150 μL of blank solution was added into plate as blank control. The 96-well UV plate prepared above was read on a Synergy HTX Multifunctional Microplate Reader (BioTek, Vermont, USA) at 294 nm. The absorbance of the sample was corrected according to the UV response of the sample and blank solution, and the corrected UV response values were used for solubility calculations by bringing into the standard curve of the compound. […]
# 1.5. Solubility Assessment
# The aqueous solubility was determined as previously reported using the high throughput solubility screens procedure published by Bruno Bard et al [9. 10]. Put simply, a certain amount of powdered compound was placed in a 2 ml centrifuge tube and mixed with an appropriate volume of aqueous phosphate buffer (0.01 M, pH 7.4) to make the whole system supersaturated. The mixtures were sonicated (KQ5200DE numerical control ultrasonic cleaner, Kunshan Ultrasonic Instrument Co., Ltd., China) for 20 min. After sonication, the mixture was allowed to equilibrate at room temperature (22 ± 2°C) for 1.5 h with vortex shaking (1200 rpm). Then the centrifuge tube was put into the centrifuge (1-14k, sigma, Germany), centrifuged with 3000 rpm for 15 minutes, 0.22 µM filter membrane filtration supernatant, then take 150 µl filtrate and add it to 96-well UV plate, with three well for each compound. Draw 150 μL blank solution were added into 96 well-plate as blank control. The 96-well UV […]
# plate prepared above was read on a SynergyHTX Multifunctional microplate reader (BioTek, USA) at 338 nm (compounds 12a-12d and 15-20) or 370 nm (compounds 9a-d). The absorbance of the sample was corrected according to the UV response of the sample and blank solution, and the corrected UV responses value were used for solubility calculations by bring into the standard curve of the compound. […]
SMILES,melting point [°C],IC50 [1] [µM],IC50 [2] [µM],IC50 [3] [µM],IC50 [4] [µM],solubility thermodynamic at 1.5 h [7] [mg/mL],Decrease of aqueous solubility compared with 9a ([7]; ratio to 9a),IC50 [5] [µM],IC50 [6] [µM]
COc1cc(/C(C#N)=C/c2ccc(NC(=O)CN3CCN(CCOCCO)CC3)cc2)cc(OC)c1OC (as salt: hydrochloride) [compound 16],240 to 243,,,,,,,,
COc1cc(/C(C#N)=C/c2ccc(NC(=O)CN3CCN[C@@H](C)C3)cc2)cc(OC)c1OC (as salt: hydrochloride) [compound 17],196 to 200,,,,,,,,
CCN1CCN(CC(=O)Nc2ccc(/C=C(\C#N)c3cc(OC)c(OC)c(OC)c3)cc2)CC1 [12a2],,11.9 ± 2.62,14.9 ± 1.32,5.37 ± 0.03,5.1 ± 0.37,26.94 ± 0.0788,,25.8 ± 3.73,16.6 ± 1.14
COc1cc(/C(C#N)=C/c2ccc(NC(=O)CN3CCCC3)cc2)cc(OC)c1OC [12a3],,17.9 ± 1.75,12.6 ± 0.91,2.56 ± 0.58,4.63 ± 0.89,0.0674 ± 0.0029,,16.9 ± 1.24,11 ± 0.82
CCN(CC)CC(=O)Nc1ccc(/C=C(\C#N)c2cc(OC)c(OC)c(OC)c2)cc1 [12a4],,12.6 ± 1.79,13.3 ± 2.59,5.64 ± 0.15,3.81 ± 0.43,0.0155 ± 0.0023,,24.8 ± 4.44,69.4 ± 7.3
COc1cc(/C(C#N)=C/c2ccc(NC(=O)CN3CCOCC3)cc2)cc(OC)c1OC [12a5],,29.1 ± 1.98,48.3 ± 5.41,6.87 ± 1.04,6.74 ± 1.97,0.015 ± 0.0026,,> 100,40.7 ± 5.18
COc1cc(/C(C#N)=C/c2ccc(NC(=O)CN3CCN(C)CC3)cc2C)cc(OC)c1OC [12b1],,15.6 ± 0.73,22.5 ± 3.6,5.25 ± 1.6,6.62 ± 2.09,0.104 ± 0.0198,,15.2 ± 0.66,20.3 ± 1.08
CCN1CCN(CC(=O)Nc2ccc(/C=C(\C#N)c3cc(OC)c(OC)c(OC)c3)c(C)c2)CC1 [12b2],,15 ± 2.32,19.8 ± 3.16,6.68 ± 1.1,7.42 ± 1.76,0.253 ± 0.0307,,20.2 ± 2.4,22.1 ± 2.05

# The next lines start with results.
melting point [°C],IC50 [1] [µM],IC50 [2] [µM],IC50 [3] [µM],IC50 [4] [µM],solubility thermodynamic at 1.5 h [7] [mg/mL],Decrease of aqueous solubility compared with 9a ([7]; ratio to 9a),SMILES,IC50 [5] [µM],IC50 [6] [µM]
224 to 230,0.8 ± 0.14,> 100,0.16 ± 0.02,0.16 ± 0.02,0.0012 ± 0.0003,nine times,COc1cc(/C(C#N)=C/c2ccc(N)cc2C)cc(OC)c1OC [9b],> 100,6.01 ± 1.35
,19.5 ± 3.61,62.1 ± 8.12,4.05 ± 0.72,3.91 ± 0.8,0.0045 ± 0.0006,,COc1ccc(/C(C#N)=C/c2ccc(N)cc2)cc1OC [9c],> 100,15.7 ± 1.79
,16.4 ± 0.42,> 100,5.86 ± 0.77,9.72 ± 0.9,0.0017 ± 0.0002,,"COc1ccc(/C(C#N)=C/c2ccc(N)cc2C)cc1OC [9d, (Z)-3-(4-Amino-2-methylphenyl)-2-(3,4-dimethoxyphenyl)acrylonitrile monohydrochloride]",> 100,62.1 ± 10.6
